# Measured values: ChEMBL document CHEMBL3352542, “Synthesis, biological evaluation and molecular modeling study of 2-(1,3,4-thiadiazolyl-thio and 4-methyl-thiazolyl-thio)-quinazolin-4-ones as a new class of DHFR inhibitors” (Bioorg Med Chem Lett, 2014)
# The source made the active and inactive calls. The calls are words filed in the database; no cut-off is given here.
# Columns and labels:
# UACC-62 = experiment: Growth inhibition of human UACC62 cells at 10 uM after 48 hrs; format: functional
# MOLT-4 = experiment: Growth inhibition of human MOLT4 cells at 10 uM after 48 hrs; format: functional
# CAKI-1 = experiment: Growth inhibition of human CAKI-1 cells at 10 uM after 48 hrs; format: functional
# T47D = experiment: Growth inhibition of human T47D cells at 10 uM after 48 hrs; format: functional
# Dihydrofolate reductase = target: T1, Dihydrofolate reductase (Bos taurus, UniProt P00376); experiment: Inhibition of bovine liver DHFR
# T1 sequence (P00376 whole entry): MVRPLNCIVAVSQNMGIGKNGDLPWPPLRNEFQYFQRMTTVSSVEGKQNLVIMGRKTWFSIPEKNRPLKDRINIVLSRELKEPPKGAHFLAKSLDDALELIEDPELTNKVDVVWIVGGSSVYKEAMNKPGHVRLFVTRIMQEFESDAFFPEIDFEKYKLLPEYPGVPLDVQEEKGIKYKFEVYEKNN
# OVCAR-8 = experiment: Growth inhibition of human OVCAR8 cells at 10 uM after 48 hrs; format: functional
# NCI-H226 = experiment: Growth inhibition of human NCI-H226 cells at 10 uM after 48 hrs; format: functional
# U-251 = experiment: Growth inhibition of human U251 cells at 10 uM after 48 hrs; format: functional
# ACHN = experiment: Growth inhibition of human ACHN cells at 10 uM after 48 hrs; format: functional
# HOP-92 = experiment: Growth inhibition of human HOP92 cells at 10 uM after 48 hrs; format: functional
# NCI-H23 = experiment: Growth inhibition of human NCI-H23 cells at 10 uM after 48 hrs; format: functional
# CCRF-CEM = experiment: Growth inhibition of human CCRF-CEM cells at 10 uM after 48 hrs; format: functional
# HCC 2998 = experiment: Growth inhibition of human HCC2998 cells at 10 uM after 48 hrs; format: functional
# LOX IMVI = experiment: Growth inhibition of human LOXIMVI cells at 10 uM after 48 hrs; format: functional
# NCI/ADR-RES = experiment: Growth inhibition of human NCI-ADR-RES cells at 10 uM after 48 hrs; format: functional
# Bacillus subtilis [1] = experiment: Antimicrobial activity against Bacillus subtilis assessed as inhibition of visible growth after 24 hrs by disc-diffusion method; format: functional, organism-based
# Staphylococcus aureus [2] = experiment: Antimicrobial activity against Staphylococcus aureus assessed as inhibition zone at 200 ug/disk after 24 hrs by disc-diffusion method; format: functional; details: read-out: IZ
# Pseudomonas aeruginosa = experiment: Antimicrobial activity against Pseudomonas aeruginosa assessed as inhibition zone at 200 ug/disk after 24 hrs by disc-diffusion method; format: functional; details: read-out: IZ
# SK-MEL-5 = experiment: Growth inhibition of human SK-MEL-5 cells at 10 uM after 48 hrs; format: functional
# Staphylococcus aureus [3] = experiment: Antimicrobial activity against Staphylococcus aureus assessed as inhibition of visible growth after 24 hrs by disc-diffusion method; format: functional, organism-based
# MDA-MB-468 = experiment: Growth inhibition of human MDA-MB-468 cells at 10 uM after 48 hrs; format: functional
# K562 = experiment: Growth inhibition of human K562 cells at 10 uM after 48 hrs; format: functional
# PC-3 = experiment: Growth inhibition of human PC3 cells at 10 uM after 48 hrs; format: functional
# KM12 = experiment: Growth inhibition of human KM12 cells at 10 uM after 48 hrs; format: functional
# HCT-15 = experiment: Growth inhibition of human HCT15 cells at 10 uM after 48 hrs; format: functional
# Escherichia coli = experiment: Antimicrobial activity against Escherichia coli assessed as inhibition zone at 200 ug/disk after 24 hrs by disc-diffusion method; format: functional; details: read-out: IZ
# SF-539 = experiment: Growth inhibition of human SF539 cells at 10 uM after 48 hrs; format: functional
# RXF 393 = experiment: Growth inhibition of human RXF393 cells at 10 uM after 48 hrs; format: functional
# OVCAR-3 = experiment: Growth inhibition of human OVCAR3 cells at 10 uM after 48 hrs; format: functional
# TK-10 = experiment: Growth inhibition of human TK10 cells at 10 uM after 48 hrs; format: functional
# A498 = experiment: Growth inhibition of human A498 cells at 10 uM after 48 hrs; format: functional
# SNB-19 = experiment: Growth inhibition of human SNB19 cells at 10 uM after 48 hrs; format: functional
# SF-268 = experiment: Growth inhibition of human SF268 cells at 10 uM after 48 hrs; format: functional
# RPMI-8226 = experiment: Growth inhibition of human RPMI8226 cells at 10 uM after 48 hrs; format: functional
# Bacillus subtilis [4] = experiment: Antimicrobial activity against Bacillus subtilis assessed as inhibition zone at 200 ug/disk after 24 hrs by disc-diffusion method; format: functional; details: read-out: IZ
# COLO 205 = experiment: Growth inhibition of human COLO205 cells at 10 uM after 48 hrs; format: functional
# UACC-257 = experiment: Growth inhibition of human UACC257 cells at 10 uM after 48 hrs; format: functional
# HL-60(TB) = experiment: Growth inhibition of human HL-60(TB) cells at 10 uM after 48 hrs; format: functional
# OVCAR-4 = experiment: Growth inhibition of human OVCAR4 cells at 10 uM after 48 hrs; format: functional
# 786-0 = experiment: Growth inhibition of human 786-0 cells at 10 uM after 48 hrs; format: functional
# MCF7 = experiment: Growth inhibition of human MCF7 cells at 10 uM after 48 hrs; format: functional
# HCT-116 = experiment: Growth inhibition of human HCT116 cells at 10 uM after 48 hrs; format: functional
# A549 = experiment: Growth inhibition of human A549 cells at 10 uM after 48 hrs; format: functional
# M14 = experiment: Growth inhibition of human M14 cells at 10 uM after 48 hrs; format: functional
# Hs-578T = experiment: Growth inhibition of human Hs 578T cells at 10 uM after 48 hrs; format: functional
# SF-295 = experiment: Growth inhibition of human SF295 cells at 10 uM after 48 hrs; format: functional
# SR = experiment: Growth inhibition of human SR cells at 10 uM after 48 hrs; format: functional
# MDA-MB-435 = experiment: Growth inhibition of human MDA-MB-435 cells at 10 uM after 48 hrs; format: functional
# SN12C = experiment: Growth inhibition of human SN12C cells at 10 uM after 48 hrs; format: functional
# HT-29 = experiment: Growth inhibition of human HT-29 cells at 10 uM after 48 hrs; format: functional
# Malme-3M = experiment: Growth inhibition of human MALME-3M cells at 10 uM after 48 hrs; format: functional
# NCI-H460 = experiment: Growth inhibition of human NCI-H460 cells at 10 uM after 48 hrs; format: functional
# BT-549 = experiment: Growth inhibition of human BT549 cells at 10 uM after 48 hrs; format: functional
# UO-31 = experiment: Growth inhibition of human UO31 cells at 10 uM after 48 hrs; format: functional
# Candida albicans = experiment: Antimicrobial activity against Candida albicans assessed as inhibition zone at 200 ug/disk after 24 hrs by disc-diffusion method; format: functional; details: read-out: IZ
# SNB-75 = experiment: Growth inhibition of human SNB75 cells at 10 uM after 48 hrs; format: functional
# SW-620 = experiment: Growth inhibition of human SW620 cells at 10 uM after 48 hrs; format: functional
# NCI-H522 = experiment: Growth inhibition of human NCI-H522 cells at 10 uM after 48 hrs; format: functional
# MDA-MB-231 = experiment: Growth inhibition of human MDA-MB-231 cells at 10 uM after 48 hrs; format: functional
# OVCAR-5 = experiment: Growth inhibition of human OVCAR5 cells at 10 uM after 48 hrs; format: functional
structure (smiles),measurement,setting,value
Cc1ccc2nc(Sc3sc(N)nc3C)n(-c3ccc(Oc4ccccc4)cc3)c(=O)c2c1,growth inhibition (GI),UACC-62,inactive
same,growth inhibition (GI),MOLT-4,inactive
same,growth inhibition (GI),CAKI-1,inactive
same,growth inhibition (GI),T47D,inactive
same,IC50,Dihydrofolate reductase,2 µM
same,growth inhibition (GI),OVCAR-8,inactive
same,growth inhibition (GI),NCI-H226,inactive
same,growth inhibition (GI),U-251,inactive
same,growth inhibition (GI),ACHN,inactive
same,growth inhibition (GI),HOP-92,inactive
same,growth inhibition (GI),NCI-H23,inactive
same,growth inhibition (GI),CCRF-CEM,inactive
same,growth inhibition (GI),HCC 2998,inactive
same,growth inhibition (GI),LOX IMVI,inactive
same,growth inhibition (GI),NCI/ADR-RES,inactive
same,Activity,Bacillus subtilis [1],Active
same,zone of inhibition at 200 µg/disc,Staphylococcus aureus [2],26 mm
same,zone of inhibition at 200 µg/disc,Pseudomonas aeruginosa,8 mm
same,growth inhibition (GI),SK-MEL-5,inactive
same,Activity,Staphylococcus aureus [3],Active
same,growth inhibition (GI),MDA-MB-468,inactive
same,growth inhibition (GI),K562,inactive
same,growth inhibition (GI),PC-3,inactive
same,growth inhibition (GI),KM12,inactive
same,growth inhibition (GI),HCT-15,inactive
same,zone of inhibition at 200 µg/disc,Escherichia coli,14 mm
same,growth inhibition (GI),SF-539,inactive
same,growth inhibition (GI),RXF 393,inactive
same,growth inhibition (GI),OVCAR-3,inactive
same,growth inhibition (GI),TK-10,inactive
same,growth inhibition (GI),A498,inactive
same,growth inhibition (GI),SNB-19,inactive
same,growth inhibition (GI),SF-268,inactive
same,growth inhibition (GI),RPMI-8226,inactive
same,zone of inhibition at 200 µg/disc,Bacillus subtilis [4],22 mm
same,growth inhibition (GI),COLO 205,inactive
same,growth inhibition (GI),UACC-257,inactive
same,growth inhibition (GI),HL-60(TB),inactive
same,growth inhibition (GI),OVCAR-4,inactive
same,growth inhibition (GI),786-0,inactive
same,growth inhibition (GI),MCF7,inactive
same,growth inhibition (GI),HCT-116,inactive
same,growth inhibition (GI),A549,inactive
same,growth inhibition (GI),M14,inactive
same,growth inhibition (GI),Hs-578T,inactive
same,growth inhibition (GI),SF-295,inactive
same,growth inhibition (GI),SR,inactive
same,growth inhibition (GI),MDA-MB-435,inactive
same,growth inhibition (GI),SN12C,inactive
same,growth inhibition (GI),HT-29,inactive
same,growth inhibition (GI),Malme-3M,inactive
same,growth inhibition (GI),NCI-H460,inactive
same,growth inhibition (GI),BT-549,inactive
same,growth inhibition (GI),UO-31,inactive
same,zone of inhibition at 200 µg/disc,Candida albicans,8 mm
same,growth inhibition (GI),SNB-75,inactive
same,growth inhibition (GI),SW-620,inactive
same,growth inhibition (GI),NCI-H522,inactive
same,growth inhibition (GI),MDA-MB-231,inactive
same,growth inhibition (GI),OVCAR-5,inactive
COc1cc2nc(Sc3sc(N)nc3C)n(-c3ccc(Cl)cc3)c(=O)c2cc1OC,growth inhibition (GI),UACC-62,inactive
same,growth inhibition (GI),MOLT-4,inactive
same,growth inhibition (GI),CAKI-1,inactive
same,growth inhibition (GI),T47D,inactive
same,IC50,Dihydrofolate reductase,2 µM
same,growth inhibition (GI),OVCAR-8,inactive
same,growth inhibition (GI),NCI-H226,inactive
same,growth inhibition (GI),U-251,inactive
same,growth inhibition (GI),ACHN,inactive
same,growth inhibition (GI),HOP-92,inactive
same,growth inhibition (GI),NCI-H23,inactive
same,growth inhibition (GI),CCRF-CEM,inactive
same,growth inhibition (GI),HCC 2998,inactive
same,growth inhibition (GI),LOX IMVI,inactive
same,growth inhibition (GI),NCI/ADR-RES,inactive
same,zone of inhibition at 200 µg/disc,Staphylococcus aureus [2],18 mm
same,zone of inhibition at 200 µg/disc,Pseudomonas aeruginosa,8 mm
same,growth inhibition (GI),SK-MEL-5,inactive
same,growth inhibition (GI),MDA-MB-468,inactive
same,growth inhibition (GI),K562,inactive
same,growth inhibition (GI),PC-3,inactive
same,growth inhibition (GI),KM12,inactive
same,growth inhibition (GI),HCT-15,inactive
same,zone of inhibition at 200 µg/disc,Escherichia coli,8 mm
same,growth inhibition (GI),SF-539,inactive
same,growth inhibition (GI),RXF 393,inactive
same,growth inhibition (GI),OVCAR-3,inactive
same,growth inhibition (GI),TK-10,inactive
same,growth inhibition (GI),A498,inactive
same,growth inhibition (GI),SNB-19,inactive
same,growth inhibition (GI),SF-268,inactive
same,growth inhibition (GI),RPMI-8226,inactive
same,zone of inhibition at 200 µg/disc,Bacillus subtilis [4],14 mm
same,growth inhibition (GI),COLO 205,inactive
same,growth inhibition (GI),UACC-257,inactive
same,growth inhibition (GI),HL-60(TB),inactive
same,growth inhibition (GI),OVCAR-4,inactive
same,growth inhibition (GI),786-0,inactive
same,growth inhibition (GI),MCF7,inactive
same,growth inhibition (GI),HCT-116,inactive
same,growth inhibition (GI),A549,inactive
same,growth inhibition (GI),M14,inactive
same,growth inhibition (GI),Hs-578T,inactive
same,growth inhibition (GI),SF-295,inactive
same,growth inhibition (GI),SR,inactive
same,growth inhibition (GI),MDA-MB-435,inactive
same,growth inhibition (GI),SN12C,inactive
same,growth inhibition (GI),HT-29,inactive
same,growth inhibition (GI),Malme-3M,inactive
same,growth inhibition (GI),NCI-H460,inactive
same,growth inhibition (GI),BT-549,inactive
same,growth inhibition (GI),UO-31,inactive
same,zone of inhibition at 200 µg/disc,Candida albicans,8 mm
same,growth inhibition (GI),SNB-75,inactive
same,growth inhibition (GI),SW-620,inactive
same,growth inhibition (GI),NCI-H522,inactive
same,growth inhibition (GI),MDA-MB-231,inactive
same,growth inhibition (GI),OVCAR-5,inactive
